Measured values: PMC11668362, “On the function of TRAP substrate-binding proteins: the isethionate-specific binding protein IseP” (Biochemical Journal, 2024)

molecular target: T1, OaIseP (isethionate-specific TRAP substrate-binding protein IseP) (Oleidesulfovibrio alaskensis, UniProt Q312S0); assay: X-ray crystal structure ([…] Å), open conformation; no significant DSF shift at […]; parameters: gene dctP; conditions: not given
Target sequence in this assay (Q312S0 24-336 limits assumed): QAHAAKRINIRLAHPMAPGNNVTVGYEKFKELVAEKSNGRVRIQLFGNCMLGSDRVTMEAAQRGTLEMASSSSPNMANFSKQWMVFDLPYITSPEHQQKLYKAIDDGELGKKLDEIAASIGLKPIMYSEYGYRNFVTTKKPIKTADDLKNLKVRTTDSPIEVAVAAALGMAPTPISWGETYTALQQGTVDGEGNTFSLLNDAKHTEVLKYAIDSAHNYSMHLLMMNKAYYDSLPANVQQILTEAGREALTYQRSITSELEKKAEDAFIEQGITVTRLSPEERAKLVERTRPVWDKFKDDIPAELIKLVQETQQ

O=S(=O)(O)CCN1CCOCC1 [MES, 2-(N-morpholino)ethanesulfonic acid] was tested, and the “X-ray crystal structure (1.65 Å), open conformation; no significant DSF shift at” value was “In both HEPES- and MES-bound structures, the sulfonate groups form a salt bridge to Arg177”.

molecular target: T1, OaIseP (isethionate-specific TRAP substrate-binding protein IseP); assay: as above; parameters: gene dctP; conditions: not given; remark: another data set of the same source
Target sequence in this assay (Q312S0 24-336 limits assumed): as above

For O=S(=O)(O)CCN1CCN(CCO)CC1 [HEPES, 4-(2-hydroxyethyl)-1-piperazineethanesulfonic acid], the “X-ray crystal structure (1.89 Å), open conformation; no significant DSF shift at” value was “we were able to confidently model HEPES and MES buffer constituents from the crystallisation conditions into the densities”.

molecular target: T1, OaIseP (isethionate-specific TRAP substrate-binding protein IseP); assay: biochemical; parameters: gene dctP; conditions: not given
Target sequence in this assay (Q312S0 24-336 limits assumed): as above

Molecule O=S(=O)(O)CCO [isethionate, 2-hydroxyethane sulfonate] has a Kd of 950 nM.

molecular target: T1, OaIseP (isethionate-specific TRAP substrate-binding protein IseP); assay: not given; parameters: gene dctP; without the native signal peptide; N-terminal His-tag removed with HRV 3C protease; DSF thermal shift with SYPRO Orange, PM4A Biolog compound screen, change of derivative melting temperature; conditions: PM4A Biolog screen, compound concentration not disclosed; binder
Target sequence in this assay (Q312S0 24-336): as the sequence (Q312S0 24-336 limits assumed) above

NC(=O)CCCCC1CCSS1 (racemic) [DL-lipoamide] and C[S+]([O-])CC[C@H](N)C(=O)O (stereo partly drawn) [L-methionine sulfoxide] are within error of each other in “ΔTmD (°C)” value: 0.60 ± 0.38 °C for the first, 0.29 ± 0.11 °C for the second.

Going from N[C@@H](CS)C(=O)NCC(=O)O [Cys-Gly] to N[C@@H](CCC(=O)N[C@@H](CS)C(=O)NCC(=O)O)C(=O)O [glutathione], the “ΔTmD (°C)” value falls from 1.14 ± 0.17 °C to -0.67 ± 0.37 °C.

Going from N[C@H](CS)C(=O)O [D-cysteine] to N[C@@H](CS)C(=O)O [L-cysteine], the “ΔTmD (°C)” value falls from 1.14 ± 0.17 °C to -0.68 ± 0.11 °C.

O=P(O)(O)O[C@H]1O[C@H](CO)[C@@H](O)[C@H](O)[C@H]1O [D-glucose-1-phosphate] and O=P(O)(O)OC1O[C@H](CO)[C@@H](O)[C@H](O)[C@@H]1O (stereo partly drawn) [D-mannose-1-phosphate] are within error of each other in “ΔTmD (°C)” value: 0.92 ± 0.26 °C for the first, 0.69 ± 0.31 °C for the second.

Compared with O=C[C@H](O)[C@@H](O)[C@H](O)[C@H](O)COP(=O)(O)O [D-glucose-6-phosphate], N[C@H](COP(=O)(O)O)C(=O)O [O-phospho-D-serine] is higher in “ΔTmD (°C)” value: -0.85 ± 0.37 °C for the first, 0.05 ± 0.42 °C for the second.

O=P(O)(O)OC[C@H]1OC(O)[C@@H](O)[C@@H](O)[C@@H]1O (stereo partly drawn) [D-mannose-6-phosphate] and O=C(O)COP(=O)(O)O [phospho-glycolic acid] are within error of each other in “ΔTmD (°C)” value: -0.09 ± 0.47 °C for the first, 0.31 ± 0.21 °C for the second.

CSCC[C@@H](N)C(=O)O [D-methionine] and CSCC[C@H](N)C(=O)O [L-methionine] are within error of each other in “ΔTmD (°C)” value: -0.62 ± 0.38 °C for the first, -0.92 ± 0.37 °C for the second.

First: CSCC[C@H](NC(=O)CN)C(=O)O [Gly-Met]
Second: CC(=O)N[C@@H](CS)C(=O)O [N-acetyl-L-cysteine]
The “ΔTmD (°C)” value of the first is higher: -0.01 ± 0.18 °C for the first, -0.64 ± 0.24 °C for the second.

N[C@@H](CS(=O)(=O)O)C(=O)O [L-cysteic acid] and CS(=O)(=O)CC[C@H](N)C(=O)O [L-methionine sulfone] are within error of each other in “ΔTmD (°C)” value: 0.11 ± 0.28 °C for the first, 0.44 ± 0.13 °C for the second.

Going from N[C@@H](CS(=O)O)C(=O)O [L-cysteine sulfinate] to CSC[C@H](N)C(=O)O [S-methyl-L-cysteine], the “ΔTmD (°C)” value falls from 0.53 ± 0.00 °C to -0.41 ± 0.48 °C.

N[C@@H](CSCSC[C@H](N)C(=O)O)C(=O)O [L-djenkolic acid] and N[C@@H](CSC[C@H](N)C(=O)O)C(=O)O [lanthionine] are within error of each other in “ΔTmD (°C)” value: -0.32 ± 0.28 °C for the first, -0.46 ± 0.10 °C for the second.

First: N[C@H](Cc1ccc(OP(=O)(O)O)cc1)C(=O)O [O-phospho-D-tyrosine]
Second: N[C@@H](Cc1ccc(OP(=O)(O)O)cc1)C(=O)O [O-phospho-L-tyrosine]
The “ΔTmD (°C)” value of the first is higher: 0.87 ± 0.11 °C for the first, -0.73 ± 0.33 °C for the second.

C[C@@H](OP(=O)(O)O)[C@H](N)C(=O)O [O-phospho-L-threonine] and NC(=O)OP(=O)(O)O [carbamoyl phosphate] are within error of each other in “ΔTmD (°C)” value: -0.62 ± 0.28 °C for the first, -0.49 ± 0.28 °C for the second.

O=P(O)(O)OC(CO)CO [b-glycerol phosphate] and C=C(OP(=O)(O)O)C(=O)O [phosphoenolpyruvate] are within error of each other in “ΔTmD (°C)” value: -0.30 ± 0.29 °C for the first, -0.63 ± 0.24 °C for the second.

First: CCCCS(=O)(=O)O [butane sulfonate]
Second: O=S(=O)(O)CCO [isethionate, 2-hydroxyethane sulfonate]
The “ΔTmD (°C)” value of the first is lower: 0.41 ± 0.46 °C for the first, 6.52 ± 0.18 °C for the second.

N[C@@H](CCSC[C@H](N)C(=O)O)C(=O)O [cystathionine] and CN(CC(=O)O)C(=N)NP(=O)(O)O [phospho-creatine] are within error of each other in “ΔTmD (°C)” value: 0.61 ± 0.21 °C for the first, 0.41 ± 0.40 °C for the second.

Going from NCCS [cysteamine] to NCCS(=O)O [hypotaurine], the “ΔTmD (°C)” value falls from 0.35 ± 0.00 °C to -0.68 ± 0.46 °C.

O=P(O)(O)O[C@H]1[C@H](OP(=O)(O)O)[C@@H](OP(=O)(O)O)[C@H](OP(=O)(O)O)[C@@H](OP(=O)(O)O)[C@H]1OP(=O)(O)O [inositol hexaphosphate] and O=S1(=O)CCCC1 [tetramethylene sulfone] are within error of each other in “ΔTmD (°C)” value: 0.46 ± 0.33 °C for the first, 0.23 ± 0.11 °C for the second.

Going from CS(=O)(=O)O [methane sulfonic acid] to NC(N)=S [thiourea], the “ΔTmD (°C)” value falls from 0.23 ± 0.28 °C to -0.73 ± 0.31 °C.
